Like-named read-outs stand apart in the source and are kept apart here.
How the values were obtained:
isolated hearts [1] = conditions: 5-minute succinate infusion
Excerpt: (§1) Spraque-Dawley rats (250 to 300 g; Sasco Inc., Omaha, Nebr.) were fasted overnight to standardize the levels of glycogen and fatty acids. The animal protocol was reviewed and approved by an appropriate Animal Care and Research Committee. All animals received humane care in compliance with the “Guide for the Care and Use of Laboratory Animals” (NIH Publication No. 85-23, revised 1985). All chemicals were obtained from Sigma (St. Louis, Mo.).
As previously described by Banerjee et al, the hearts from rats anticoagulated with heparin were excised, immediately arrested in iced oxygenated perfusate, placed on a modified Langendorff apparatus, and retrograded perfused at a constant pressure of 70 mm Hg with nonrecirculating Krebs-Henseleit solution saturated with a gas mixture of 92.5% O2 and 7.5% CO2 Banerjee et al., Circ. Res., 73, 649 (1993). A water-filled latex balloon was inserted into the left ventricle (LV) and the balloon volume was adjusted to achieve a stable LV end-diastolic pressure of 5 mm Hg. This volume was then kept constant for the duration of the study. Pacing wires were fixed to the right atrium, and the hearts were paced at 350 beats per minute except during ischemia and the first three minutes of reperfusion.
The left ventricular developed pressure (LVDP, in mm Hg) was used as an index of myocardial function and was continuously recorded with a computerized bridge amplifier/digitalizer (Maclab 8, AD Instruments) and a Macintosh AV 7100 (Apple Computer). Hearts unable to initially produce 90 to 120 mm Hg LVDP when paced at 350 beats per minute were discarded. A stopcock above the aortic root was turned to create global ischemia, during which time the heart was placed in a degassed humidified chamber at 37° C.
The myocardial cytochrome a,a3 redox state, oxymyoglobin (MbO2) and deoxymyoglobin, was continuously monitored using near infrared spectroscopy (NIRS). The use of NIRS to study cardiac metabolism was described previously. In this study, a single NIRS probe (as disclosed in co-pending U.S. patent application Ser. No. 08/672,625) containing five fiber optic bundles (four peripherally arranged to supply infrared light (700 to 1000 nm) and one fiber positioned 4 mm away to receive the transmitted light) was placed on the lift ventricle. For each heart, a signal reference zero value is set at the beginning of the study. The resultant signal changes are continuously processed and recorded using analytic algorithms to separate the effects of each of the signals. The resulting NIRS measurements were taken directly from the monitor and plotted in absorption units versus time. These strips were then printed and saved for subsequent analysis.
In the second phase of the study, 12 isolated hearts were placed on the Langendorff apparatus as described above. After the equilibration period, 5-minute infusions of succinate at concentrations of 0, 2 ,20 ,200, and 2000 μmol/L were delivered via a Harvard infusion pump directly into a port above the aortic cannula at 0.068 mL/minute. LVDP, heart rate, cytochrome a,a3 redox state, MbO2 and deoxymyoglobin were continuously monitored as described above.

isolated hearts [2] = tested on: isolated hearts
Excerpt: as §1
As previously described by Banerjee et al, the hearts from rats anticoagulated with heparin were excised, immediately arrested in iced oxygenated perfusate, placed on a modified Langendorff apparatus, and retrograded perfused at a constant pressure of 70 mm Hg with nonrecirculating Krebs-Henseleit solution saturated with a gas mixture of 92.5% O2 and 7.5% CO2 Banerjee et al., Circ. Res., 73, 649 (1993). […]
The left ventricular developed pressure (LVDP, in mm Hg) was used as an index of myocardial function and was continuously recorded with a computerized bridge amplifier/digitalizer (Maclab 8, AD Instruments) and a Macintosh AV 7100 (Apple Computer). […]
The myocardial cytochrome a,a3 redox state, oxymyoglobin (MbO2) and deoxymyoglobin, was continuously monitored using near infrared spectroscopy (NIRS). […] The resultant signal changes are continuously processed and recorded using analytic algorithms to separate the effects of each of the signals. […]

[3] = lower concentrations, non-ischemic heart

O=C(O)CCC(=O)O [succinate]
LVDP (left ventricular developed pressure) (isolated hearts [1]; 20 μmol/L): not different from control | cytochrome a,a3 redox state (isolated hearts [1]; 20 μmol/L): reduction of the cytochrome a,a3 redox state | LVDP (left ventricular developed pressure) (isolated hearts [1]; 200 μmol/L): not different from control | cytochrome a,a3 redox state (isolated hearts [1]; 200 μmol/L): reduction of the cytochrome a,a3 redox state | LVDP (left ventricular developed pressure) (isolated hearts [1]; 2000 μmol/L): markedly reduced | cytochrome a,a3 redox state (isolated hearts [1]; 2000 μmol/L): markedly reduced | LVDP (left ventricular developed pressure) (isolated hearts [1]; [3]): minimal effects | cytochrome a,a3 redox state (isolated hearts [1]; [3]): minimal effects | cytochrome a,a3 redox state on reperfusion (isolated hearts [2]; 200 μmol/L succinate for first 5 minutes of reperfusion after 20 min global ischemia, versus control buffer): attenuation of the oxidation | coupling relationship between oxyhemoglobin and the redox state of cytochrome a,a3 (isolated hearts [2]; succinate given early in reperfusion at the described dosages): restores the coupling relationship

Source: patent US6712802B1, “Metabolic therapy directed at electron transport” (priority 1997, dated 2004)
